Our source for the concentration values is US11427550B2, “5-fluorouracil compounds” (NUCORION PHARMACEUTICALS, INC., priority 2018, dated 2022).

The data set can be described thus: Tissue distribution following oral administration of reference compounds and the disclosed compounds. The following applies: rat. In kind it is in vivo, rats. The protocol:
The liver specificity of the disclosed compounds is compared relative to a corresponding active compound in liver and other organs that could be targets of toxicity.
Reference compounds and the cyclic deoxyribonucleotide, acetal, and hemiaminal compounds are administered at 5-50 mg/kg to fasted rats by oral gavage. Plasma concentrations of the metabolites, and parent compounds in circulation and in the hepatic portal vein are determined by HPLC-UV, and the liver, small intestine, and other organ concentrations are measured by LC-MS using the standard chromatography method.

[1] abbreviates: prodrug level in the blood 1 hour after oral administration at 5 mg/kg dose in rats (Table 2), read-out: Drugblood.
The mark [2] stands for this setting: prodrug level in the liver 1 hour after oral administration at 5 mg/kg dose in rats (Table 2), read-out: Drugliver.
The mark [3] stands for this setting: drug level in the blood 1 hour after oral administration at 5 mg/kg dose in rats (Table 1), read-out: Drugblood.
Where [4] appears, read: drug level in the liver 1 hour after oral administration at 5 mg/kg dose in rats (Table 1), read-out: Drugliver.

Read-outs that look alike come from different tables or passages of the source. Where only a bound is given, the exact number is not on record here.

Consider `O=c1[nH]c(=O)n([C@H]2C[C@@H]3OP(=O)(OCC4(c5ccccc5)CC4)OC[C@H]3O2)cc1F` (stereo partly drawn) [Compound 217, 5-Fluoro-1-((4aR,6R,7aS)-2-oxido-2-((1-phenylcyclopropyl)methoxy)tetrahydro-4H-furo[3,2-d][1,3,2]dioxaphosphinin-6-yl)pyrimidine-2,4(1H,3H)-dione], for which the concentration at 1 h is, setting by setting: under setting [1], 21.7 ng/mL; under setting [2], 255 ng/g.
On to `C[C@H](NP(=O)(OC[C@H]1O[C@@H](n2cc(F)c(=O)[nH]c2=O)C[C@@H]1O)Oc1cccc2ccccc12)C(=O)OCc1ccccc1` (stereo partly shown) [NUC-3373, reference compound], for which the concentration at 1 h under setting [1] is under 1 ng/mL and the concentration at 1 h under setting [2] is under 6 ng/g.
`O=c1[nH]c(=O)n([C@H]2C[C@@H]3OP(=O)(Oc4ccccc4)OC[C@H]3O2)cc1F` (stereo partly drawn) [Compound 122, 5-Fluoro-1-((4aR,6R,7aS)-2-oxido-2-phenoxytetrahydro-4H-furo[3,2-d][1,3,2]dioxaphosphinin-6-yl)pyrimidine-2,4(1H,3H)-dione]: the concentration at 1 h runs as follows: under setting [3], 301 ng/mL; under setting [4], 1980 ng/g.
`CCOCOC1[C@@H](O)[C@H](n2cc(F)c(=O)n(COCC)c2=O)O[C@@H]1C` (stereo in doubt) [Compound 109, 1-((2R,3R,4R,5R)-4-(Ethoxymethoxy)-3-hydroxy-5-methyltetrahydrofuran-2-yl)-3-(ethoxymethyl)-5-fluoropyrimidine-2,4(1H,3H)-dione]: the concentration at 1 h is 83.9 ng/mL under setting [3] and 373 ng/g under setting [4].
Regarding `COc1ccc(C2O[C@@H]3[C@H](O2)[C@@H](C)O[C@H]3n2cc(F)c(=O)[nH]c2=O)cc1` (stereo partly drawn) [Compound 118, 5-Fluoro-1-((3aR,4R,6R,6aR)-2-(4-methoxyphenyl)-6-methyltetrahydrofuro[3,4-d][1,3]dioxol-4-yl)pyrimidine-2,4(1H,3H)-dione], the concentration at 1 h by setting is: under setting [3], 3680 ng/mL; under setting [4], 1220 ng/g.
In the case of `O=c1[nH]c(=O)n([C@H]2C[C@@H]3OP(=O)(OCc4ccc(F)cc4C4OCCO4)OC[C@H]3O2)cc1F` (stereo partly drawn) [Compound 219, 1-((4aR,6R,7aS)-2-((2-(1,3-Dioxolan-2-yl)-4-fluorobenzyl)oxy)-2-oxidotetrahydro-4H-furo[3,2-d][1,3,2]dioxaphosphinin-6-yl)-5-fluoropyrimidine-2,4(1H,3H)-dione], the concentration at 1 h under setting [1] came to 20 ng/mL and the concentration at 1 h under setting [2] amounted to 49.9 ng/g.
Take `O=c1[nH]c(=O)n([C@H]2C[C@@H]3OP(=O)(OCc4ccccc4F)OC[C@H]3O2)cc1F` (stereo partly drawn) [Compound 139, 1-((4aR,6R,7aS)-2-(2-Fluorobenzyloxy)-2-oxidotetrahydro-4H-furo[3,2-d][1,3,2]dioxaphosphinin-6-yl)-5-fluoropyrimidine-2,4(1H,3H)-dione]: the concentration at 1 h runs as follows: under setting [3], 11.3 ng/mL; under setting [4], under 6 ng/g.
`O=c1[nH]c(=O)n([C@H]2C[C@@H]3OP(=O)(OCc4ccc(C(F)(F)F)cc4)OC[C@H]3O2)cc1F` (stereo partly drawn) [Compound 156, 5-Fluoro-1-((4aR,6R,7aS)-2-oxido-2-((4-(trifluoromethyl)benzyl)oxy)tetrahydro-4H-furo[3,2-d][1,3,2]dioxaphosphinin-6-yl)pyrimidine-2,4(1H,3H)-dione]: the concentration at 1 h is 3.66 ng/mL under setting [3] and under 6 ng/g under setting [4].
`CCCCCCCCCOP1(=O)OC[C@H]2O[C@@H](n3cc(F)c(=O)[nH]c3=O)C[C@@H]2O1` (stereo partly drawn) [Compound 132, 5-Fluoro-1-((4aR,6R,7aS)-2-(nonyloxy)-2-oxidotetrahydro-4H-furo[3,2-d][1,3,2]dioxaphosphinin-6-yl)pyrimidine-2,4(1H,3H)-dione]: the concentration at 1 h under setting [3] amounted to 59.9 ng/mL and the concentration at 1 h under setting [4] stood at 1370 ng/g.
For the compound `O=c1[nH]c(=O)n([C@H]2C[C@@H]3OP(=O)(OCCCC4CCCC4)OC[C@H]3O2)cc1F` (stereo partly drawn) [Compound 207, 5-Fluoro-1-((4aR,6R,7aS)-2-(3-cyclopentylpropyloxy)-2-oxidotetrahydro-4H-furo[3,2-d][1,3,2]dioxaphosphinin-6-yl)pyrimidine-2,4(1H,3H)-dione], the concentration at 1 h under setting [1] is 29.4 ng/mL and the concentration at 1 h under setting [2] is 429 ng/g.
For the compound `O=c1[nH]c(=O)n([C@H]2C[C@@H]3OP(=O)(OCCCc4ccccc4)OC[C@H]3O2)cc1F` (stereo partly drawn) [Compound 220, 5-Fluoro-1-((4aR,6R,7aS)-2-(3-phenylpropyloxy)-2-oxidotetrahydro-4H-furo[3,2-d][1,3,2]dioxaphosphinin-6-yl)pyrimidine-2,4(1H,3H)-dione], the concentration at 1 h runs as follows: under setting [1], 122 ng/mL; under setting [2], 944 ng/g.
For `CCCCCCCCOP1(=O)OC[C@H]2O[C@@H](n3cc(F)c(=O)[nH]c3=O)C[C@@H]2O1` (stereo partly drawn) [Compound 202, 5-Fluoro-1-((4aR,6R,7aS)-2-(octyloxy)-2-oxidotetrahydro-4H-furo[3,2-d][1,3,2]dioxaphosphinin-6-yl)pyrimidine-2,4(1H,3H)-dione], in that order: 158 ng/mL and 2560 ng/g.
With `C[C@H]1O[C@@H](n2cc(F)c(=O)[nH]c2=O)[C@@H]2OC(c3ccc(O)cc3)O[C@@H]21` (stereo partly drawn) [Compound 116, 5-Fluoro-1-((3aR,4R,6R,6aR)-2-(4-hydroxyphenyl)-6-methyltetrahydrofuro[3,4-d][1,3]dioxol-4-yl)pyrimidine-2,4(1H,3H)-dione], the concentration at 1 h worked out at 1350 ng/mL under setting [3] and 978 ng/g under setting [4].
Take `O=c1[nH]c(=O)n([C@H]2C[C@@H]3OP(=O)(OCc4ccc(Cl)cc4)OC[C@H]3O2)cc1F` (single isomer, unassigned) [Compound 127]: the concentration at 1 h is 7.81 ng/mL under setting [3] and under 6 ng/g under setting [4].
For `CCc1ccc(COP2(=O)OC[C@H]3O[C@@H](n4cc(F)c(=O)[nH]c4=O)C[C@@H]3O2)cc1` (stereo partly drawn) [Compound 147, 1-((4aR,6R,7aS)-2-(4-Ethylbenzyloxy)-2-oxidotetrahydro-4H-furo[3,2-d][1,3,2]dioxaphosphinin-6-yl)-5-fluoropyrimidine-2,4(1H,3H)-dione], in that order: under 1 ng/mL and under 6 ng/g.
In the case of `CCCCCCCOP1(=O)OC[C@H]2O[C@@H](n3cc(F)c(=O)[nH]c3=O)C[C@@H]2O1` (stereo partly drawn) [Compound 201, 5-Fluoro-1-((4aR,6R,7aS)-2-(heptyloxy)-2-oxidotetrahydro-4H-furo[3,2-d][1,3,2]dioxaphosphinin-6-yl)pyrimidine-2,4(1H,3H)-dione], the concentration at 1 h by setting is: under setting [1], 109 ng/mL; under setting [2], 1040 ng/g.
Regarding `CCCCCOC(=O)Nc1nc(=O)n([C@@H]2O[C@H](C)[C@@H](O)[C@H]2O)cc1F` [Capecitabine, reference compound], the concentration at 1 h under setting [1] stood at 88.4 ng/mL and the concentration at 1 h under setting [2] turned out to be 44.7 ng/g.
